The values that follow come from patent US12084472B2 (Ardelyx, Inc., priority 2015, dated 2024).

The experiment addresses T1, human TGR5 (Homo sapiens, UniProt Q8TDU6).
T1 construct: expressed in transfected cells; host or cells: HEK293
T1 sequence (Q8TDU6 1-330): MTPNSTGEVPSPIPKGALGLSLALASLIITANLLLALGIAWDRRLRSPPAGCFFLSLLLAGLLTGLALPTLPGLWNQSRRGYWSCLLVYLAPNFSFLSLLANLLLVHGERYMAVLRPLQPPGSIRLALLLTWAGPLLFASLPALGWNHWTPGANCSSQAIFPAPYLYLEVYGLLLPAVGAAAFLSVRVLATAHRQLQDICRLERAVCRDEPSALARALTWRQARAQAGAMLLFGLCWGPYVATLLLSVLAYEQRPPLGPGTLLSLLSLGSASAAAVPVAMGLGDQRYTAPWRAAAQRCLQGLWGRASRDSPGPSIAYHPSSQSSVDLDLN
Nature of the experiment: Cell-based TGR5 assay (cAMP generation, HTRF). The following applies: HEK293 cells stably transfected with human TGR5; cAMP by HTRF; 30 minutes at 37° C.; read-out: pEC50 Human TGR5 (converted). A digest of the protocol:
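First, compounds in 3-fold serial dilution were placed in HBSS with 10 mM HEPES pH 7.4 and 0.5 mM IBMX. Next, human TGR5-expressing HEK293 cells were added and incubated 30 min at 37° C. Finally, cAMP was detected by HTRF and pEC50 derived by logistic fitting.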
In general terms: TR-FRET usually uses a lanthanide donor and a delayed reading to cut background.
Take `O=C(O)CN1CCN(C(=O)CCCCc2cc(Cl)c(COC3(c4cnccc4-c4ccccc4OC4CC4)CC3)cc2Cl)CC1` [Compound I-88, 2-(4-(5-(2,5-dichloro-4-((1-(4-(2-cyclopropoxyphenyl)pyridin-3-yl)cyclopropoxy)methyl)phenyl)pentanoyl)piperazin-1-yl)acetic acid]: the EC50 was under 100 nM. The result for `CN(C[C@H](O)[C@@H](O)[C@H](O)[C@H](O)CO)C(=O)CN1CCN(C(=O)CCCCc2cc(Cl)c(COC3(c4cnccc4-c4ccccc4OC4CC4)CC3)cc2Cl)CC1` [Compound I-89, 2-(4-(5-(2,5-dichloro-4-((1-(4-(2-cyclopropoxyphenyl)pyridin-3-yl)cyclopropoxy)methyl)phenyl)pentanoyl)piperazin-1-yl)-N-methyl-N-((2S,3R,4R,5R)-2,3,4,5,6-pentahydroxyhexyl)acetamide] reads under 100 nM; that for `O=C(CCCCc1cc(Cl)c(COC2(c3cnccc3-c3ccccc3OC3CC3)CC2)cc1Cl)NCCOCCOCCOCCNC(=O)CCCCc1cc(Cl)c(COC2(c3cnccc3-c3ccccc3OC3CC3)CC2)cc1Cl` [Compound I-90, N,N′-(((oxybis(ethane-2,1-diyl))bis(oxy))bis(ethane-2,1-diyl))bis(5-(2,5-dichloro-4-((1-(4-(2-cyclopropoxyphenyl)pyridin-3-yl)cyclopropoxy)methyl)phenyl)pentanamide)], 126 to 1000 nM; that for `O=C(O)CN1CCN(CCNC(=O)CCCCc2cc(Cl)c(COC3(c4cnccc4-c4ccccc4OC4CC4)CC3)cc2Cl)CC1` [Compound I-91, 2-(4-(2-(5-(2,5-dichloro-4-((1-(4-(2-cyclopropoxyphenyl)pyridin-3-yl)cyclopropoxy)methyl)phenyl)pentanamido)ethyl)piperazin-1-yl)acetic acid], under 100 nM.

With `O=C(CCCCc1cc(Cl)c(COC2(c3cnccc3-c3ccccc3OC3CC3)CC2)cc1Cl)N1CCN(C[C@H](O)[C@@H](O)[C@@H](O)[C@H](O)CO)CC1` [Compound I-92, 5-(2,5-dichloro-4-((1-(4-(2-cyclopropoxyphenyl)pyridin-3-yl)cyclopropoxy)methyl)phenyl)-1-(4-((2S,3R,4S,5R)-2,3,4,5,6-pentahydroxyhexyl)piperazin-1-yl)pentan-1-one], the EC50 was under 100 nM. For `O=C(CCCCc1cc(Cl)c(COC2(c3cnccc3-c3ccccc3OC3CC3)CC2)cc1Cl)NC[C@@H]1O[C@H](C(=O)O)[C@@H](O)[C@H](O)[C@H]1O` [Compound I-93, (2S,3S,4R,5R,6S)-6-((5-(2,5-dichloro-4-((1-(4-(2-cyclopropoxyphenyl)pyridin-3-yl)cyclopropoxy)methyl)phenyl)pentanamido)methyl)-3,4,5-trihydroxytetrahydro-2H-pyran-2-carboxylic acid], the EC50 is under 100 nM. `CCN(C[C@H](O)[C@@H](O)[C@H](O)[C@H](O)CO)C(=O)NCCCCc1cc(Cl)c(COC2(c3cnccc3-c3ccccc3OC3CC3)CC2)cc1C` [Compound I-94, 3-(4-(5-chloro-4-((1-(4-(2-cyclopropoxyphenyl)pyridin-3-yl)cyclopropoxy)methyl)-2-methylphenyl)butyl)-1-ethyl-1-((2S,3R,4R,5R)-2,3,4,5,6-pentahydroxyhexyl)urea]: the EC50 was under 100 nM. The result for `Cc1cc(COC2(c3cnccc3-c3ccccc3OC3CC3)CC2)c(Cl)cc1CCCCNC(=O)N[C@@H](CO)[C@@H](O)[C@H](O)[C@H](O)CO` [Compound I-95, 1-(4-(5-chloro-4-((1-(4-(2-cyclopropoxyphenyl)pyridin-3-yl)cyclopropoxy)methyl)-2-methylphenyl)butyl)-3-((2S,3R,4S,5R)-1,3,4,5,6-pentahydroxyhexan-2-yl)urea] reads under 100 nM; that for `CCN(CCCCc1cc(Cl)c(COC2(c3cnccc3-c3ccccc3OC3CC3)CC2)cc1C)C(=O)NC[C@H](O)[C@@H](O)[C@H](O)[C@H](O)CO` [Compound I-96, 1-(4-(5-chloro-4-((1-(4-(2-cyclopropoxyphenyl)pyridin-3-yl)cyclopropoxy)methyl)-2-methylphenyl)butyl)-1-ethyl-3-((2S,3R,4R,5R)-2,3,4,5,6-pentahydroxyhexyl)urea], under 100 nM.
